Measurements: patent US20210213081A1, “COMPOSITION FOR PREVENTING, AMELIOREATING, OR TREATING STRESS OR DEPRESSION COMPRISING MEDICINAL HERB EXTRACT AS EFFECTIVE INGREDIENT” (KOREA INSTITUTE OF ORIENTAL MEDICINE, priority 2016, published 2021)

Tests used:
[1] = test system: cortisol; test: Blood cortisol measurement after immobility stress (competitive enzyme immunoassay); type: in vivo; settings: mouse blood serum, immobility stress 22 days, 20 mg/kg oral daily, FIG. 7
Text: (§1) As a test animal, 7-week old male C57BL/6 mouse was used after obtaining it from Samtako Bio Korea. The test animals were acclimated for 7 days in the test animal research center, which is a specific pathogen-free facility of Korea Institute of Oriental Medicine. They were divided into the followings 6 groups in total: normal group not exposed to any stress (Control, n=16), stress control group applied with the stress only (Vehicle, n=16), positive control group applied with the stress and commercially available anti-depressant (Fluoxetine, n=16), and test groups applied with the stress and extract of Hibiscus syriacus root (100, 200, or 400 mg/kg, n=16). […]
(§2) Upon the completion of the test, the test animal was anesthetized, and blood was collected from the heart and centrifuged (1,000×g, 15 minutes) to obtain blood serum. […] Then, the absorbance at 405 nm was measured by using Micro Spectrophotometer (Molecular Device, Sunnyvale, Calif., USA).

[2] = test system: serotonin; test: Blood serotonin measurement after immobility stress (competitive enzyme immunoassay); type: in vivo; settings: mouse blood serum, immobility stress 22 days, 20 mg/kg oral daily, FIG. 8
Text: as §1
as §2, with “After adding the stop solution (50 μl),” for “Then,”

[3] = test system: C57BL/6 mouse; test: Sucrose preference test (SPT) in immobility stress model; type: in vivo; settings: immobility stress 22 days, 20 mg/kg oral daily, FIG. 4
Text: as §1, with “n=16). The test methods were reviewed by Test animal ethics committee of Korea Institute of Oriental Medicine (approval number: 15-102), and as for the breeding and maintenance of the test animals, the animals were placed in an IVC (individually ventilated cage) (5 animals per cage), which has been constantly maintained at temperature of 23±1° C., humidity of 50±10% or so, and light/dark period of 12 hours, based on the regulations for management and use of animals by the Test Animal Research Center of Korea Institute of Oriental Medicine.” for “n=16).”
The sucrose preference test was carried out on Day 1 of the test and after completion of the test. […] The intake preference was calculated as follows.

[4] = test system: C57BL/6 mouse; test: Tail suspension test (TST) in immobility stress model; type: in vivo; settings: immobility stress 22 days, 20 mg/kg oral daily, FIG. 6
Text: as §1
The method by Can and others was used for the tail suspension test. […] Of total 6 minutes, the measurement was not carried out for initial 2 minutes as an acclimation period, while the immobile time of the test animal was measured for the last 4 minutes. […]

[5] = test system: C57BL/6 mouse; test: Forced swimming test (FST) in immobility stress model; type: in vivo; settings: immobility stress 22 days, 20 mg/kg oral daily, FIG. 5
Text: as §1
To measure the anti-depression effect of an extract of Hibiscus syriacus root, the forced swimming test was carried out, after the completion of the immobility stress test, by using the method of Porsolt, et. al. ([…]). […] Of total 6 minutes, the measurement was not carried out for initial 2 minutes as an acclimation period, while the immobile time of the test animal was measured for the last 4 minutes. […]

[6] = test system: SK-N-SH cells; test: Activity of protecting nerve cells against corticosterone toxicity, MTS assay (cell proliferation); type: cell-based, human; settings: 0.25 mM corticosterone for 1 hour, versus normal group
Method: SK-N-SH cells as human neuroblastoma cell line were obtained from Korean Cell Line Bank, cultured in DMEM (Dulbecco's modified Eagle's medium) medium containing 10% bovine serum and 1% penicillin/streptomycin (37° C., 5% CO2 incubator), and used. Once a cell monolayer is formed, the cells were treated with TrypLE 1× solution to release the cells followed by subculture.
Furthermore, based on the toxicity of corticosterone, the activity of protecting nerve cells in human blastoma was examined. Specifically, on a Corning BioCoat collagen I 96-well plate, SK-N-SH cells were sewn at 3×10^4/well. Thereafter, the cells were pre-treated for 24 hours with an extract of Hibiscus syriacus flower or Hibiscus syriacus root at a concentration of 10, 50, 100, or 200 μg/ml followed by a treatment with 0.25 mM corticosterone for 1 hour to induce oxidative stress. Then, MTS assay was carried out and, by measuring the absorbance using ELISA (enzyme-linked immunosorbent assay) plate reader, the cell proliferation was determined.
As a positive control, a treatment with 10 μM fluoxetine (Sigma, St. Louis, Mo., USA) was carried out instead of the treatment with an extract of Hibiscus syriacus flower or Hibiscus syriacus root.

Compound	cortisol production in blood compared to control group (Vehicle) [1]	serotonin production in blood compared to control group (Vehicle) [2]	sucrose intake amount compared to stress control group (Vehicle) [3]	immobile time in tail suspension test compared to control group (Vehicle) [4]	immobile time in forced swimming test compared to control group (Vehicle) [5]	cells diminished by treatment with corticosterone [6] [%]
CNCCC(Oc1ccc(C(F)(F)F)cc1)c1ccccc1 (stereo not drawn) [Fluoxetine, fluoxetine]	decreased in significant sense	increased in significant sense	increased in significant sense	decreased	decreased in significant sense	
C[C@]12C[C@H](O)[C@H]3[C@@H](CCC4=CC(=O)CC[C@@]43C)[C@@H]1CC[C@@H]2C(=O)CO [corticosterone]						~50
